{"source": "patent US6172042A", "about": "“Synthetic peptides that inhibit IL-6 activity” (Yeda Research and Development Co. LTD, priority 1995, dated 2001)", "tested_on": "B9 plasmacytoma-derived cells", "conditions": "250 μg/ml", "note": "Where a SMILES comes first, the peptide text is derived from it.", "protocol": "To assay the biological activity of the peptides as inhibitors of IL-6 action against growth of plasmacytoma cells, a hybridoma cell line B9 whose growth is IL-6 dependent (Helle et al, 1988) was used. The B9 cells were cultured in suspension in growth medium RPMI 1640 (Biolabs Ltd., Israel) with 10% heat-inactivated fetal calf serum and 4 U/ml IL-6.\nPrior to assay, the B9 cells were washed and incubated for 5 hours in growth medium but without IL-6. The cells were centrifuged, resuspended in growth medium with 2.5 units/ml (i.e. 7.5 IU/ml) of IL-6 and seeded in a 96-well microplate (Nunc, Denmark) at 50,000 cells in a final volume of 0.2 ml per well. A 25 µl of water solution with appropriate peptide concentration was included in the final volume of each well, i.e. the peptides at concentrations ranging from 62.5 μg/ml to 250 μg/ml (as well as a 0 μg/ml control) were added together with the IL-6. […] The optical absorbance at 530 nm wavelength of each well was measured as specified by the manufacturer. The absorbance is directly proportional to the number of living cells in the well as verified in calibration experiments from 50,000 to 10^6 B9 cells (0.25 OD530 corresponding to 5×10^5 B9 cells under the present experimental conditions). The results were expressed as the difference between final cell density with IL-6 and without IL-6. […]"}
{"compound": "CSCC[C@H](NC(=O)[C@H](Cc1c[nH]c2ccccc12)NC(=O)[C@@H](NC(=O)[C@@H](NC(=O)[C@H](Cc1ccccc1)NC(=O)[C@@H](NC(=O)[C@H](CCCCN)NC(=O)[C@H](CO)NC(=O)[C@H](CCCNC(=N)N)NC(=O)[C@H](CCC(=O)O)NC(=O)[C@H](C)NC(=O)[C@H](CCCNC(=N)N)NC(=O)[C@H](Cc1ccc(O)cc1)NC(=O)[C@H](CCCNC(=N)N)NC(=O)[C@@H](N)CC(C)C)[C@@H](C)O)[C@@H](C)O)[C@@H](C)O)C(=O)N[C@H](C(=O)O)C(C)C", "note": "[peptide 1063, LRYRAERSKTFTTWMV] (H-LRYRAERSKTFTTWMV-OH)", "values": [{"measurement": "growth inhibition of B9 cells", "result": 99, "unit": "%"}]}
